Measured values as given in US9193719B2, “1,2,4-triazol-5-ones and analogs exhibiting anti-cancer and anti-proliferative activities” (Deciphera Pharmaceuticals, LLC, priority 2013, dated 2015).

Columns and labels:
[1] = target: T1, unphosphorylated c-FMS kinase (uFMS, Seq. ID no. 1) (Homo sapiens, UniProt P07333); assay: uFMS kinase enzymatic assay (pyruvate kinase/lactate dehydrogenase coupled); type: biochemical; conditions: ATP 500 μM, rate 3 to 4 h
T1 construct: purchased Millipore
T1 sequence (P07333 538-972): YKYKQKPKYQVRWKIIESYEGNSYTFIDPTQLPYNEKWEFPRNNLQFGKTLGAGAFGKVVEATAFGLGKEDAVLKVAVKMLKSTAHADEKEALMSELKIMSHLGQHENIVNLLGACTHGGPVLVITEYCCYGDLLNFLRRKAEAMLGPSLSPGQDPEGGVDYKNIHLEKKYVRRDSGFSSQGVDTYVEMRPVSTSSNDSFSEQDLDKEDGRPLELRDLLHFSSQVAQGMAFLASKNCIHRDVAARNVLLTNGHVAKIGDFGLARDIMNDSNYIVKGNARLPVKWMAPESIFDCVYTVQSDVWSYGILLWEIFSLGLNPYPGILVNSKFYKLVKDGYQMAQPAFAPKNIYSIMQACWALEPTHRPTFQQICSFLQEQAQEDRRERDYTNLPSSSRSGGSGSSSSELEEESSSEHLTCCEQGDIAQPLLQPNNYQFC
Outline: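 Coupled PK/LDH assay following NADH oxidation at A340 with 10 nM unphosphorylated FMS, 1 mg/mL polyE4Y, 500 μM ATP in 90 mM Tris pH 7.5, 0.2% octyl-glucoside, 1% DMSO. Read continuously 4 h at 30 °C; rate from 3–4 h window versus no-compound control; IC50 from percent-inhibition series.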

[2] = system: phospho-FMS in THP-1 cells; assay: Phospho-FMS ELISA assay in THP-1 cells; type: cell-based; conditions: Homo sapiens, 4 h compound, M-CSF stimulation 5 min, read-out: pFMS inhibition in THP-1 cells
Protocol: THP-1 cells (catalog #TIB-202) were obtained from the ATCC. Briefly, cells were grown in RPMI 1640 supplemented with 10% characterized fetal bovine serum, 1% sodium pyruvate, 1% Penicillin-Streptomycin-Glutamine (PSG) and 55 uM 2-mercaptoethanol (Invitrogen, Carlsbad, Calif.) at 37 degrees Celsius, 5% CO2, 95% humidity. Cells were allowed to expand until reaching 70-95% confluency at which point they were subcultured or harvested for assay use.
A serial dilution of test compound was diluted 1:100 in assay medium (RPMI 1640 supplemented with 10% characterized fetal bovine serum) in a 96 well black clear bottom plate (Corning, Corning, N.Y.). In a separate 96 well black clear bottom plate, one hundred and fifty thousand THP-1 cells were added per well in 100 μL in assay medium. Fifty microliters of diluted compound was then added to the cells. Plates were incubated for 4 hours at 37 degrees Celsius, 5% CO2, 95% humidity. At the end of the incubation period, cells were stimulated with 50 μL of a 100 nM solution of recombinant human M-CSF (catalog #216-MC, R & D Systems, Minneapolis, Minn.) in assay medium and the plate was incubated for 5 minutes at 37 degrees Celsius, 5% CO2, 95% humidity. Lysates were prepared and used to perform the phospho-FMS ELISA as described by the manufacturer (catalog #DYC3268, R & D Systems, Minneapolis, Minn.). GraphPad Prism was used to calculate IC50 values obtained from data generated from the ELISA assay.

[3] = system: MDA-MB-231-luc-D3H2LN human breast carcinoma xenograft; assay: MDA-MB-231 xenograft study; type: in vivo, mouse; conditions: orally dosed at 15 mpk twice daily
Protocol: MDA-MB-231 Xenograft Study
To evaluate the in vivo anti-cancer activity compounds of Formula I, a MDA-MB-231-luc-D3H2LN human breast carcinoma xenograft was employed. Briefly, MDA-MB-231-luc-D3H2LN cells were obtained from Xenogen and expanded in Minimal Essential Media (MEM) with EBSS which was modified with 1% L-glutamine and supplemented with 10% FBS, 1% PSG, 1% non-essential amino acids, and 1% sodium pyruvate. The growth environment was maintained in an incubator with a 5% CO2 atmosphere at 37° C. Cells were harvested and re-suspended using 50% serum-free media and 50% Matrigel® to generate a stock concentration of 5×10^6 cells/mL.
Six to 7 week old female C.B-17/IcrHsd-PrkdcscidLystbg mice were injected with 200 μL of cell suspension subcutaneously, just below the right axilla. All procedures carried out in this experiment were conducted in compliance with all the laws, regulations and guidelines of the National Institutes of Health (NIH). Treatment began when the mean tumor burden is approximately 150 mg. All mice were dosed with test compound by oral gavage. Body weights and tumor measurements were recorded three times weekly. […] Images were analyzed using Living Image (Xenogen, Alameda, Calif.) software. […]

Structure (SMILES) | IC50 [1] | IC50 [2] | tumor growth inhibition [3]
Cc1nc(-n2nc(C(C)(C)C)[nH]c2=O)ccc1Oc1ccnc(-c2cnn(C)c2)c1 [Example 7, 3-(tert-butyl)-1-(6-methyl-5-((2-(1-methyl-1H-pyrazol-4-yl)pyridin-4-yl)oxy)pyridin-2-yl)-1H-1,2,4-triazol-5(4H)-one] | ≤ 10 nM | 10 to 100 nM | 39%
Cn1cc(-c2cc(Oc3ccc(-n4nc(C(C)(C)C)[nH]c4=O)nc3)ccn2)cn1 [Example 4, 3-(tert-butyl)-1-(5-((2-(1-methyl-1H-pyrazol-4-yl)pyridin-4-yl)oxy)pyridin-2-yl)-1H-1,2,4-triazol-5(4H)-one] | ≤ 10 nM | 10 to 100 nM | 
Cc1nc(-n2nc(Cc3ccc(F)cc3)[nH]c2=O)ccc1Oc1ccnc(-c2cnn(C)c2)c1 [Example 1, 3-(4-fluorobenzyl)-1-(6-methyl-5-((2-(1-methyl-1H-pyrazol-4-yl)pyridin-4-yl)oxy)pyridin-2-yl)-1H-1,2,4-triazol-5(4H)-one] | ≤ 10 nM | 10 to 100 nM | 

Further lines, with some results ahead:

IC50 [1] | IC50 [2] | Structure (SMILES) | tumor growth inhibition [3]
≤ 10 nM | 10 to 100 nM | Cc1cc(-n2nc(C(C)(C)C)[nH]c2=O)ncc1Oc1ccnc(-c2cnn(C)c2)c1 [Example 31, 3-(tert-butyl)-1-(4-methyl-5-((2-(1-methyl-1H-pyrazol-4-yl)pyridin-4-yl)oxy)pyridin-2-yl)-1H-1,2,4-triazol-5(4H)-one] | 
10 to 100 nM | 10 to 100 nM | Cc1nc(-n2nc(C(C)(C)C)[nH]c2=O)ccc1Oc1cc(-c2cnn(C)c2)ncn1 [Example 47, 3-(tert-butyl)-1-(6-methyl-5-((6-(1-methyl-1H-pyrazol-4-yl)pyrimidin-4-yl)oxy)pyridin-2-yl)-1H-1,2,4-triazol-5(4H)-one] | 
10 to 100 nM | 100 to 1000 nM | COCC(C)(C)c1nn(-c2ccc(Oc3ccnc(-c4cnn(C)c4)c3)c(C)n2)c(=O)[nH]1 [Example 46, 3-(1-methoxy-2-methylpropan-2-yl)-1-(6-methyl-5-((2-(1-methyl-1H-pyrazol-4-yl)pyridin-4-yl)oxy)pyridin-2-yl)-1H-1,2,4-triazol-5(4H)-one] | 
